{"source": "paper PMC8070745", "about": "“FEN1 Blockade for Platinum Chemo-Sensitization and Synthetic Lethality in Epithelial Ovarian Cancers” (Cancers, 2021)", "type_in_all_cases": "cell-based, human", "key": {"A2780cis spheroids": {"system": "A2780cis spheroids", "experiment": "3D spheroid assay, A2780cis", "conditions": "FEN1i/cisplatin combination vs cisplatin or FEN1i monotherapy", "description": "(§1) with ice cold PBS and fixed in 70% ethanol for 1h at -20°C. After removal of the fixative solution by centrifugation, cells were stained with 2 µg/ml of phospho-Histone (γH2AX) Ser139 (16202A, Millipore, UK) to detect DSBs.\n(§2) Cell cycle progression: Cells were treated with 20 µg/ml RNase A (12091021, Invitrogen) and then 10 µg/ml Propidium Iodide (P4170, Sigma Aldrich) was added to determine the cell cycle distribution. The samples were analysed on a Beckman-Coulter FC500 flow cytometer using a 488nm laser for excitation and emission data for PI collected using a 620nm bandpass filter (FL3) and a 525nm bandpass filter (FL1) for FITC-anti-phospho-Histone H2A.X.\n(§3) Apoptosis detection: Annexin V detection kit (556547, BD Biosciences) was used to quantify apoptotic cells. Briefly, cells were trypsinized, washed with PBS and the cellular pellet was re-suspended in Anexin Binding Buffer (1×). […] All the samples were analysed on a Beckman-Coulter FC500 flow cytometer. The percentage of apoptotic cells was determined (late apoptotic = FITC-Annexin V positive, PI positive early apoptotic = FITC-Annexin V positive, PI negative; live cells = FITC-Annexin V negative, PI negative) and compared for untreated and treated samples. […]\n(§4) To quantify cell viability, LIVE/DEAD Viability/Cytotoxicity Kit (L3224, Thermo Fisher Scientific) was used. […] At least 10 spheroids were measured. […]"}, "PEO4 spheroids": {"system": "PEO4 spheroids", "experiment": "3D spheroid assay, PEO4", "conditions": "FEN1i/cisplatin combination vs cisplatin or FEN1i monotherapy", "description": "as §1, §2, §3, §4"}, "PEO1 spheroids": {"system": "PEO1 spheroids", "experiment": "3D spheroid assay, PEO1", "conditions": "PEO1 spheroids vs PEO4 spheroids", "description": "as §1, §2, §3, §4"}}}
{"smiles": "Cc1csc2c1c(=O)n(O)c(=O)n2-c1ccccc1", "note": "[PTPD, 3-hydroxy-5-methyl-1-phenylthieno [2,3 d]pyrimidine-2,4(1H,3H)-dione]", "values": [{"measurement": "cell death in 3D-spheroids", "setting": "A2780cis spheroids", "result": "increased cell death"}, {"measurement": "cell death in 3D spheroids", "setting": "PEO4 spheroids", "result": "increased cell death"}, {"measurement": "spheroid sensitivity to FEN1 inhibitor", "setting": "PEO1 spheroids", "result": "hypersensitive to FEN1 inhibition"}]}
